Test results taken from patent publication US20140349943A1, “TOPICAL FORMULATIONS OF CHEMERIN C15 PEPTIDES FOR THE TREATMENT OF DERMATOLOGICAL CONDITIONS” (priority 2011, published 2014).
pEC50, pIC50: −log10 of the molar value. Where two headings read alike, the source gives them in different places. Peptide text beside a SMILES is read from it.

Tests used:
Assay type in all cases: cell-based
ChemR23 (CMKLR1) = target: T1, ChemR23 (CMKLR1) (Homo sapiens, UniProt Q99788); test: PathHunter β-Arrestin assay, ChemR23 (CMKLR1), agonist and antagonist mode; conditions: for Rank Order / % Max Activity / % Max Inhibition: ChemR23; for Rank Order: agonist; for % Max Activity: agonist mode; for % Max Inhibition: antagonist mode, chemerin at EC80; for agonist activity, in words / antagonist activity, in words: human ChemR23; for agonist activity, in words: FIG. 2A/2B; for antagonist activity, in words: chemerin at 80% maximum signal
T1 construct: host or cells: CHO
T1 sequence (Q99788 1-373): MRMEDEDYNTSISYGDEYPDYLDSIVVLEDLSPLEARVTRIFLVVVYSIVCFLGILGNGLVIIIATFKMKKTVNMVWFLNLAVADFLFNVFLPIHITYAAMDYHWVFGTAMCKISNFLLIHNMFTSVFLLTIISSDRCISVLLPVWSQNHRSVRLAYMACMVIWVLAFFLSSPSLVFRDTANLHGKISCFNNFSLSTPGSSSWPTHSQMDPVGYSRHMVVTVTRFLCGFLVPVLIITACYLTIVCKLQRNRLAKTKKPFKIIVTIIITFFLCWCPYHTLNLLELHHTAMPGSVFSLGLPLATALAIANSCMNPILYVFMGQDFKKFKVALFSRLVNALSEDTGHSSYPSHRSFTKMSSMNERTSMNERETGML
Experimental: (§1) The DiscoveRx PathHunter™ eXpress GPCR activity assay was employed to test agonist and antagonist activities of the chemerin peptides against the GPCRs ChemR23 and GPR1. Two assay formats were tested, the PathHunter β-Arrestin assay and the Hit Hunter cAMP Hunter assay.
(§2) The PathHunter β-Arrestin assay monitors the activation of a GPCR in a homogenous, non-imaging assay format using a technology developed by DiscoveRx called complementation, which utilizes an enzyme fragment complementation (EFC) assay with β-galactosidase (β-Gal) as the functional reporter. The enzyme is split into two complementary portions expressed as fusion proteins in the cell. The Enzyme Acceptor (EA) is fused to β-Arrestin and the ProLink donor peptide is fused to the GPCR of interest. Upon GPCR stimulation, β-Arrestin is recruited to the receptor for desensitization, bringing the two fragments of β-Gal together and allowing complementation to occur.
(§3) The assay involves CHO cell lines that express 1) a GPCR of interest (e.g. ChemR23 or GPR1) that has a fragment of the βgal enzyme fused to the C-terminus of the receptor and 2) a β-arrestin fused to the main β-gal enzyme. When the agonist binds to the receptor, β-arrestin is recruited to the receptor and the β-gal enzyme is complemented by the fragment from the GPCR thus forming a functional β-gal enzyme. A substrate is then added and luminescence is generated to detect β-arrestin recruitment.
(§4) The protocol used was a standard protocol employed by DiscoveRx PathHunter™ profiling service. […] Once it was established that the cells were healthy and growing normally, cells were passaged from flasks using cell dissociation reagent and seeded into white walled clear bottom 384-well microplates for compound profiling. For profiling, cells were seeded at a density of 5000 cells per well in a total volume of 20 μL and were allowed to adhere and recover overnight prior to compound addition.
(§5) For the agonist assay, intermediate dilution of compound stocks were generated such that 5 μL of 5× compound could be added to each well with a final DMSO concentration of 1% of total volume. For profiling compound in agonist mode, the cells were incubated in the presence of compound at 37° C. for 90 minutes.
(§6) For the antagonist assay, agonist dose curves were performed the morning of profiling to determine the EC80 value for the following antagonist testing with compounds. 5 μL of 5× agonist (i.e. chemerin) was added to each well with an equal concentration of vehicle present. EC80 agonist concentration was determined directly from agonist dose curve. For antagonist determination, cells were preincubated with antagonist followed by agonist challenge at the EC80 concentration: 4. 5 μL of 5× compound added to cells and incubated at 37° C. for 30 minutes. 5. 5 μL of 6× EC80 agonist added to cells and incubated at 37° C. for 90 minutes.
(§7) Microplates were read following signal generation with a PerkinElmer Envision™ instrument for chemiluminescent signal detection
(§8) Dose curves in the presence and absence of compound were plotted using GraphPad Prism or Activity Base. For agonist mode assays, percentage activity was calculated using the following formula: % Activity=100%×(Mean RLU of test sample−mean RLU of vehicle control)/(mean MAX RLU control ligand−mean RLU of vehicle control)). For antagonist mode assays, percentage inhibition was calculated using the following formula: % Inhibition=100%×(1−(Mean RLU of test sample−mean RLU of vehicle control)/(mean RLU of EC80 control−mean RLU of vehicle control)).

mChemR23 = target: T2, mChemR23 (Mus musculus, UniProt P97468); test: PathHunter β-Arrestin assay, mouse ChemR23
T2 construct: host or cells: CHO (stated generally for the PathHunter assay)
T2 sequence (P97468 1-371): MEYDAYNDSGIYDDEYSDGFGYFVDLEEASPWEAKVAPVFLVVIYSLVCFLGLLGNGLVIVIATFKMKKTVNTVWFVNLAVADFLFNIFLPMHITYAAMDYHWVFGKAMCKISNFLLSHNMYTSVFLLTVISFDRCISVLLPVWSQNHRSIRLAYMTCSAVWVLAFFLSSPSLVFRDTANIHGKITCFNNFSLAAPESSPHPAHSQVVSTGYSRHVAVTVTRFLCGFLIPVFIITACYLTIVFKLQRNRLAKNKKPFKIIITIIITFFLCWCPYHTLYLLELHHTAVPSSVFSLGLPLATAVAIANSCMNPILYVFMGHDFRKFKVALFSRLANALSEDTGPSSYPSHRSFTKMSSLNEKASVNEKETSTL
Experimental: as §1, §2, §3, §4, §5
as §6, with “5 μL of 6× EC80 agonist added to cells and incubated at 37° C. for 90 minutes.” left out
as §7, §8

ChemR23 = target: T3, ChemR23 (Homo sapiens, UniProt Q99788); test: Hit Hunter cAMP Hunter assay, human ChemR23
T3 sequence (Q99788 1-373): T1 sequence (Q99788 1-373)
Experimental: as §1
as §4, with “reagent buffer” for “reagent”, “10000” for “5000”, “addition. Cells were treated the following day using the protocols shown below. cAMP modulation was determined using the DiscoveRx HitHunter cAMP XS+ assay.” for “addition.”
For profiling compound in agonist mode, the cells were incubated in the presence of compound at 37° C. for 30 minutes.
EC80 agonist concentration was determined directly from agonist dose curve.
Microplates were read following signal generation with a PerkinElmer Envision™ instrument for chemiluminescent signal detection.
Dose curves in the presence and absence of compound were plotted using GraphPad Prism or Activity Base.

Structure (SMILES)	pEC50 (ChemR23 (CMKLR1))	pIC50 (ChemR23 (CMKLR1))	Rank Order (ChemR23 (CMKLR1))	% Max Activity (ChemR23 (CMKLR1)) [%]	% Max Inhibition (ChemR23 (CMKLR1)) [%]	agonist activity, in words (ChemR23 (CMKLR1))	antagonist activity, in words (ChemR23 (CMKLR1))	pEC50 (mChemR23)	pIC50 (ChemR23)	pIC50 (mChemR23)	EC50 (ChemR23 (CMKLR1); read-out: RC50 (uM), EC50, Arrestin, Agonist, AssayTarget ChemR23) [µM]
C[C@H](N)C(=O)NCC(=O)N[C@@H](CCC(=O)O)C(=O)N[C@@H](CC(=O)O)C(=O)N1CCC[C@H]1C(=O)N[C@@H](Cc1c[nH]cn1)C(=O)N[C@@H](CO)C(=O)N[C@@H](Cc1ccccc1)C(=O)N[C@@H](Cc1ccc(O)cc1)C(=O)N[C@@H](Cc1ccccc1)C(=O)N1CCC[C@H]1C(=O)NCC(=O)N[C@@H](CCC(N)=O)C(=O)N[C@@H](Cc1ccccc1)C(=O)N[C@@H](C)C(=O)O [C15 (human)] (H-AGEDPHSFYFPGQFA-OH; N-terminus and C-terminus assumed)	< 5.00	< 5.00	3	0.8	0	neither human nor mouse chemerin C15 peptides acted as agonists	neither human nor mouse chemerin C15 peptides acted as antagonists	< 5.00	< 5.00	–	–
C[C@H](N)C(=O)NCC(=O)N[C@@H](CCC(=O)O)C(=O)N[C@@H](CC(=O)O)C(=O)N1CCC[C@H]1C(=O)N[C@@H](Cc1c[nH]cn1)C(=O)N[C@@H](CO)C(=O)N[C@@H](Cc1ccccc1)C(=O)N[C@@H](Cc1ccc(O)cc1)C(=O)N[C@@H](Cc1ccccc1)C(=O)N1CCC[C@H]1C(=O)NCC(=O)N[C@@H](CCC(N)=O)C(=O)N[C@@H](Cc1ccccc1)C(=O)N[C@@H](C)C(=O)N[C@@H](Cc1ccccc1)C(=O)N[C@@H](CO)C(=O)O [C17 (human)] (H-AGEDPHSFYFPGQFAFS-OH; N-terminus and C-terminus assumed)	–	< 5.00	2	67.5	0	exhibited agonist activity	–	–	< 5.00	< 5.00	–
CC(C)C[C@H](NC(=O)[C@H](Cc1ccccc1)NC(=O)[C@H](Cc1ccc(O)cc1)NC(=O)CNC(=O)[C@H](Cc1c[nH]cn1)NC(=O)[C@@H]1CCCN1C(=O)[C@H](CC(=O)O)NC(=O)[C@H](CCC(=O)O)NC(=O)CNC(=O)[C@H](C)N)C(=O)N1CCC[C@H]1C(=O)NCC(=O)N[C@@H](CCC(N)=O)C(=O)N[C@@H](Cc1ccccc1)C(=O)N[C@@H](C)C(=O)O [mC15] (H-AGEDPHGYFLPGQFA-OH; N-terminus and C-terminus assumed)	< 5.00	< 5.00	3	0.4	0	neither human nor mouse chemerin C15 peptides acted as agonists	neither human nor mouse chemerin C15 peptides acted as antagonists	–	< 5.00	< 5.00	> 10
